Assay [1] has as its system M. tuberculosis alone or macrophages infected by M. tuberculosis. In words: Potentiation of ethionamide cell test (High Content Screening). In kind it is cell-based. Particulars: ligand concentration potentiating ten times the activity of ethionamide, ethionamide constant at 0.1 μg/mL (1/10th of its CMI99).
A further assay deals with EthR protein (Mycobacterium tuberculosis, UniProt P9WMC1). In words: TSA test (Thermal Shift Assay), fluorescence with Sypro Orange. Particulars: melting temperature shift of EthR with ligand vs protein alone. In kind it is binding, M. tuberculosis.
EthR protein, sequence (P9WMC1 whole entry, looked up): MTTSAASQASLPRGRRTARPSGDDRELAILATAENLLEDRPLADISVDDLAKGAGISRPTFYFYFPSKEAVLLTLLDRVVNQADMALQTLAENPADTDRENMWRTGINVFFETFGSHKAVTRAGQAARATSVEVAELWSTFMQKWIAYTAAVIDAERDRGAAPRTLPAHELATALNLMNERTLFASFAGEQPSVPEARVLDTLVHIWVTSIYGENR

Where two headings read alike, the source gives them in different places. A value given as a limit tells only on which side of the number the result lay.

38 compounds from patent US9920042B2, “Compounds for use in the treatment of mycobacterial infections” (Universite de Droit et de la Sante de Lille 2, priority 2012, dated 2018) can be followed below.

As a reminder, the EC50 is the concentration at which the effect is half-maximal. By ΔTm is commonly meant the change in melting temperature against a reference sample. Regarding `CCCS(=O)(=O)NCc1nc(-c2ccc(C(=O)NCCC(F)(F)F)cc2)cs1` [Compound 103, 4-(2-(propylsulfonamidomethyl)thiazol-4-yl)-N-(3,3,3-trifluoropropyl)benzamide], the EC50 in assay [1] (read-out: EC50) amounted to 0.32 µM. Besides, the ΔTm on EthR protein amounted to 6.6 °C. For `Cc1nc(-c2ccc(S(=O)(=O)NCCCC(F)(F)F)cc2)cs1` [Compound 27, 4-(2-methylthiazol-4-yl)-N-(4,4,4-trifluorobutyl)benzene sulfonamide], the EC50 in assay [1] (read-out: EC50) was more than 2.5 µM. For the same compound, on EthR protein, the ΔTm amounted to 6.6 °C.

In the case of `Cc1nc(-c2ccc(C(=O)NCCC(F)(F)F)cc2)c(Cl)s1` [Compound 64, 4-(5-chloro-2-methylthiazol-4-yl)-N-(3,3,3-trifluoropropyl)benzamide], in assay [1] (read-out: EC50), the EC50 was 0.35 µM. Moreover, the ΔTm at EthR protein was found to be 8.7 °C. Consider `Cc1nc(-c2ccc(S(=O)(=O)NCC(F)(F)C(F)(F)C(F)(F)F)cc2)cs1` [Compound 28, N-(2,2,3,3,4,4,4-heptafluorobutyl)-4-(2-methylthiazol-4-yl)benzene sulfonamide], for which the EC50 in assay [1] is more than 2.5 µM. Further, the ΔTm on EthR protein came out at 7.3 °C.

As for `CC(C)CCCc1nc(-c2ccc(C(=O)NCCC(F)(F)F)cc2)cs1` [Compound 47, 4-(2-(4-methylpentyl)thiazol-4-yl)-N-(3,3,3-trifluoropropyl)benzamide], the EC50 in assay [1] (read-out: EC50) stood at 0.03 µM. Besides, the ΔTm on EthR protein was determined as 13.0 °C. As for `O=S(=O)(NCCC(F)(F)F)c1ccc(-c2nc3ccccc3s2)cc1` [Compound 42, 4-(benzo[d]thiazol-2-yl)-N-(3,3,3-trifluoropropyl)benzene sulfonamide], the EC50 in assay [1] (read-out: EC50) turned out to be 0.3 µM. As for `CCOC(=O)Cc1nc(-c2ccc(C(=O)NCCC(F)(F)F)cc2)cs1` [Compound 52], the EC50 in assay [1] (read-out: EC50) came out at 0.19 µM. At EthR protein, the ΔTm was 10.1 °C. The like results for `O=S(=O)(NCC#Cc1ccc(S(=O)(=O)NCCC(F)(F)F)cc1)c1ccccc1` [Compound 106, 4-(3-(phenylsulfonamido)prop-1-ynyl)-N-(3,3,3-trifluoropropyl)-benzene sulfonamide] were, in that order, 1.8 µM and 3.3 °C. The like results for `O=C(NCCC(F)(F)F)c1ccc(C#CCNS(=O)(=O)c2ccccc2)cc1` [Compound 112, 4-(3-(phenylsulfonamido)prop-1-ynyl)-N-(3,3,3-trifluoropropyl)-benzamide] were, in that order, 0.23 µM and 4.2 °C. The like results for `COC(=O)Cc1nc(-c2ccc(S(=O)(=O)NCCC(F)(F)F)cc2)cs1` [Compound 33, 2-(4-(4-(N-(3,3,3-trifluoropropyl)sulfamoyl)phenyl)thiazol-2-yl)methyl acetate] were, in that order, 0.86 µM and 9.5 °C. Regarding `Cc1nnc(-c2ccc(C(=O)NCCC(F)(F)F)cc2)o1` [Compound 80, 4-(5-methyl-1,3,4-oxadiazol-2-yl)-N-(3,3,3-trifluoropropyl)benzamide], in assay [1] (read-out: EC50), the EC50 was determined as 0.96 µM.

`Cc1nc(-c2ccc(S(=O)(=O)NCC(F)(F)C(F)(F)F)cc2)cs1` [Compound 25, 4-(2-methylthiazol-4-yl)-N-(2,2,3,3,3-pentafluoropropyl)benzene sulfonamide]: the EC50 in assay [1] (read-out: EC50) is more than 20 µM. Besides, at EthR protein, the ΔTm stood at 8.6 °C. As to `Cc1nnc(-c2ccc(C(=O)NCCC(F)(F)F)cc2)s1` [Compound 83, 4-(5-methyl-1,3,4-thiadiazol-2-yl)-N-(3,3,3-trifluoropropyl)benzamide], the EC50 in assay [1] (read-out: EC50) worked out at 1.4 µM. Still for that read-out and setting: under `Cc1nc(-c2ccc(C(=O)NCCC(F)(F)F)cc2)no1` [Compound 75, 4-(5-methyl-1,2,4-oxadiazol-3-yl)-N-(3,3,3-trifluoropropyl)benzamide] stands 0.062 µM. For `Cc1csc(-c2ccc(S(=O)(=O)NCCC(F)(F)F)cc2)n1` [Compound 41, 4-(4-methylthiazol-2-yl)-N-(3,3,3-trifluoropropyl)benzene sulfonamide], in assay [1] (read-out: EC50), the EC50 amounted to 0.66 µM. For the same compound, the ΔTm at EthR protein worked out at 6.8 °C. On the same counts, the results for `CC(C)CCNS(=O)(=O)c1ccc(-c2csc(CC(N)=O)n2)cc1` [Compound 21, 2-(4-(4-(N-isopentylsulfamoyl)phenyl)thiazol-2-yl)acetamide] are 5 µM and 4.6 °C. Regarding `CCOC(=O)c1nc(-c2ccc(C(=O)NCCC(F)(F)F)cc2)cs1` [Compound 54, 4-(4-(3,3,3-trifluoropropylcarbamoyl)phenyl)thiazole-2-ethyl carboxylate], in assay [1] (read-out: EC50), the EC50 is more than 2.5 µM. Besides, the ΔTm at EthR protein worked out at 9.6 °C.

On to `CC(C)CCNS(=O)(=O)c1ccc(-c2csc(CC#N)n2)cc1` [Compound 17, 4-(2-(cyanomethyl)thiazol-4-yl)-N-isopentyl benzene sulfonamide], for which, in assay [1] (read-out: EC50), the EC50 was found to be 7.9 µM. At EthR protein, the ΔTm stood at 5.3 °C. On the same counts, the results for `O=C(NCCC(F)(F)F)c1ccc(-c2cscn2)cc1` [Compound 56, 4-(thiazol-4-yl)-N-(3,3,3-trifluoropropyl)benzamide] are 0.36 µM and 8.1 °C. On the same counts, the results for `CS(=O)(=O)NCC#Cc1ccc(S(=O)(=O)NCCC(F)(F)F)cc1` [Compound 108, 4-(3-(methylsulfonamido)prop-1-ynyl)-N-(3,3,3-trifluoropropyl)-benzene sulfonamide] are more than 10 µM and 1.4 °C. The like results for `O=C(NCCC(F)(F)F)c1ccc(-n2cc(CCO)nn2)cc1` [Compound 97, 4-(4-(2-hydroxyethyl)-1H-1,2,3-triazol-1-yl)-N-(3,3,3-trifluoropropyl)-benzamide] were, in that order, 2 µM and 1.2 °C.

On to `CC(C)(C)S(=O)(=O)Cc1nc(-c2ccc(C(=O)NCCC(F)(F)F)cc2)cs1` [Compound 50, 4-(2-(tert-butylsulfonylmethyl)thiazol-4-yl)-N-(3,3,3-trifluoropropyl)-benzamide], for which, in assay [1] (read-out: EC50), the EC50 worked out at 0.041 µM. Besides, the ΔTm at EthR protein is 9.6 °C. For the compound `Cc1nc(-c2ccc(S(=O)(=O)NCCC(C)(C)C)cc2)cs1` [Compound 23, N-(3,3-dimethylbutyl)-4-(2-methylthiazol-4-yl)benzene sulfonamide], the EC50 in assay [1] (read-out: EC50) was more than 20 µM. Also, on EthR protein, the ΔTm turned out to be 2.3 °C. In the case of `O=C(NCCC(F)(F)F)c1ccc(-c2nsc(CO)n2)cc1` [Compound 90, 4-(5-(hydroxymethyl)-1,2,4-thiadiazol-3-yl)-N-(3,3,3-trifluoropropyl)-benzamide], in assay [1] (read-out: EC50), the EC50 turned out to be 0.13 µM. Regarding `Cc1nc(-c2ccc(S(=O)(=O)NCC(F)(F)F)cc2)cs1` [Compound 26, 4-(2-methylthiazol-4-yl)-N-(2,2,2-trifluoroethyl)benzene sulfonamide], the EC50 in assay [1] (read-out: EC50) was 7.9 µM. Further, the ΔTm at EthR protein amounted to 6.3 °C. For `CC(C)(C)S(=O)(=O)Cc1nc(-c2ccc(S(=O)(=O)NCCC(F)(F)F)cc2)cs1` [Compound 39, 4-(2-(tert-butylsulfonylmethyl)thiazol-4-yl)-N-(3,3,3-trifluoropropyl)-benzene sulfonamide], in assay [1] (read-out: EC50), the EC50 was found to be 0.2 µM. Further, at EthR protein, the ΔTm worked out at 7.3 °C.

As for `O=C(NCCC(F)(F)F)c1ccc(-n2cc(C3CC3)nn2)cc1` [Compound 95, 4-(4-cyclopropyl-1H-1,2,3-triazol-1-yl)-N-(3,3,3-trifluoropropyl)-benzamide], the EC50 in assay [1] (read-out: EC50) was determined as 1.7 µM. On EthR protein, the ΔTm came out at 3.5 °C.

`CC(C)OC(=O)Cc1nc(-c2ccc(C(=O)NCCC(F)(F)F)cc2)cs1` [Compound 53, 2-(4-(4-(3,3,3-trifluoropropylcarbamoyl)phenyl)thiazol-2-yl(isopropyl acetate]: in assay [1] (read-out: EC50), the EC50 came to 0.33 µM. Also, at EthR protein, the ΔTm is 13.2 °C. On the same counts, the results for `CC(C)Cc1cn(-c2ccc(C(=O)NCCC(F)(F)F)cc2)nn1` [Compound 94, 4-(4-isobutyl-1H-1,2,3-triazol-1-yl)-N-(3,3,3-trifluoropropyl)benzamide] are 1.2 µM and 4.1 °C. `CC(C)NC(=O)Cc1nc(-c2ccc(S(=O)(=O)NCCC(F)(F)F)cc2)cs1` [Compound 36, N-isopropyl-2-(4-(4-(N-(3,3,3-trifluoropropyl)sulfamoyl)phenyl)thiazol-2-yl)acetamide]: the EC50 in assay [1] (read-out: EC50) worked out at 0.21 µM. On to `O=C(NCCC(F)(F)F)c1ccc(-c2csc(CNS(=O)(=O)c3ccccc3)n2)cc1` [Compound 104, 4-(2-(phenylsulfonamidomethyl)thiazol-4-yl)-N-(3,3,3-trifluoro-propyl)benzamide], for which the EC50 in assay [1] (read-out: EC50) turned out to be 0.15 µM. In addition, the ΔTm on EthR protein is 1.2 °C. `Cc1nc(-c2ccc(C(=O)NCCC(F)(F)F)nc2)cs1` [Compound 67, 5-(2-methylthiazol-4-yl)-N-(3,3,3-trifluoropropyl)picolinamide]: in assay [1] (read-out: EC50), the EC50 stood at 0.12 µM. On the same count and under the same terms, under `Cc1noc(-c2ccc(C(=O)NCCC(F)(F)F)cc2)n1` [Compound 78, 4-(3-methyl-1,2,4-oxadiazol-5-yl)-N-(3,3,3-trifluoropropyl)benzamide] stands 0.21 µM.

Turning to `CC(C)OC(=O)c1nc(-c2ccc(C(=O)NCCC(F)(F)F)cc2)cs1` [Compound 55, 4-(4-(3,3,3-trifluoropropylcarbamoyl)phenyl)thiazole-2-isopropyl carboxylate], in assay [1] (read-out: EC50), the EC50 amounted to 0.73 µM. Further, on EthR protein, the ΔTm came out at 8.2 °C. `Cc1nc(-c2ccc(C(=O)NCCC(F)(F)F)cn2)cs1` [Compound 71, 6-(2-methylthiazol-4-yl)-N-(3,3,3-trifluoropropyl)nicotinamide]: in assay [1] (read-out: EC50), the EC50 was 1.7 µM. For `[N-]=[N+]=Nc1ccc(C(=O)NCCC(F)(F)F)cc1` [Compound 92, 4-azido-N-(3,3,3-trifluoropropyl)benzamide], the EC50 in assay [1] (read-out: EC50) was 1.1 µM. For the same compound, the ΔTm on EthR protein worked out at 6.0 °C. As for `Cc1nc(-c2ccc(C(=O)NCCC(F)(F)F)cc2)c(F)s1` [Compound 62, 4-(5-fluoro-2-mthylthiazol-4-yl)-N-(3,3,3-trifluoropropyl)benzamide], the EC50 in assay [1] (read-out: EC50) was 0.055 µM. The same measure, in the same setting: under `Cc1nc(-c2ccc(C(=O)NCCC(F)(F)F)cc2)co1` [Compound 72, 4-(2-methyloxazol-4-yl)-N-(3,3,3-trifluoropropyl)benzamide] stands 0.18 µM.
